According to patent US9084828B2, “Oligomer-protein tyrosine kinase inhibitor conjugates” (Nektar Therapeutics, priority 2009, dated 2015):

How the values were obtained:
AurB = AurB (Homo sapiens, UniProt Q96GD4); test: Activity against various protein tyrosine kinases: AurB; type: biochemical
AurC = biological target: T1, AurC (Homo sapiens, UniProt Q9UQB9); test: Activity against various protein tyrosine kinases: AurC; type: biochemical
T1 sequence (Q9UQB9 1-309): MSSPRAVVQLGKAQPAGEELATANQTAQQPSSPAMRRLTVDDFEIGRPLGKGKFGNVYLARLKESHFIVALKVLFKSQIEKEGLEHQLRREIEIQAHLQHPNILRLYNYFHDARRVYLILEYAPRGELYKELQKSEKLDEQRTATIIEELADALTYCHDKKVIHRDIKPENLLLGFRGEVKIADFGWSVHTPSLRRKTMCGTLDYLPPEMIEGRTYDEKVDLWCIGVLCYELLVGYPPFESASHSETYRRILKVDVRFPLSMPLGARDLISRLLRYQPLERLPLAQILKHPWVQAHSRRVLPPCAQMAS

CaMKII (beta) = CaMKII (beta) (Homo sapiens, UniProt Q13554); test: Activity against various protein tyrosine kinases: CaMKII (beta); type: biochemical
CK1d = CK1d (Homo sapiens, UniProt P48730); test: Activity against various protein tyrosine kinases: CK1d; type: biochemical
CKIT = CKIT (Homo sapiens, UniProt P10721); test: Activity against various protein tyrosine kinases: CKIT; type: biochemical
EPHA2 = EPHA2 (Homo sapiens, UniProt P29317); test: Activity against various protein tyrosine kinases: EPHA2; type: biochemical
FYN = FYN (Homo sapiens, UniProt P06241); test: Activity against various protein tyrosine kinases: FYN; type: biochemical
GSK3b = GSK3b (Homo sapiens, UniProt P49841); test: Activity against various protein tyrosine kinases: GSK3b; type: biochemical
LCK = LCK (Homo sapiens, UniProt P06239); test: Activity against various protein tyrosine kinases: LCK; type: biochemical
MSK1 = MSK1 (Homo sapiens, UniProt O75582); test: Activity against various protein tyrosine kinases: MSK1; type: biochemical
p38-beta2 = p38-beta2 (Homo sapiens, UniProt Q15759); test: Activity against various protein tyrosine kinases: p38-beta2; type: biochemical
PKG1-beta = biological target: T2, PKG1-beta (Homo sapiens, UniProt Q13976); test: Activity against various protein tyrosine kinases: PKG1-beta; type: biochemical
T2 sequence (Q13976 1-686 isoform Q13976-2): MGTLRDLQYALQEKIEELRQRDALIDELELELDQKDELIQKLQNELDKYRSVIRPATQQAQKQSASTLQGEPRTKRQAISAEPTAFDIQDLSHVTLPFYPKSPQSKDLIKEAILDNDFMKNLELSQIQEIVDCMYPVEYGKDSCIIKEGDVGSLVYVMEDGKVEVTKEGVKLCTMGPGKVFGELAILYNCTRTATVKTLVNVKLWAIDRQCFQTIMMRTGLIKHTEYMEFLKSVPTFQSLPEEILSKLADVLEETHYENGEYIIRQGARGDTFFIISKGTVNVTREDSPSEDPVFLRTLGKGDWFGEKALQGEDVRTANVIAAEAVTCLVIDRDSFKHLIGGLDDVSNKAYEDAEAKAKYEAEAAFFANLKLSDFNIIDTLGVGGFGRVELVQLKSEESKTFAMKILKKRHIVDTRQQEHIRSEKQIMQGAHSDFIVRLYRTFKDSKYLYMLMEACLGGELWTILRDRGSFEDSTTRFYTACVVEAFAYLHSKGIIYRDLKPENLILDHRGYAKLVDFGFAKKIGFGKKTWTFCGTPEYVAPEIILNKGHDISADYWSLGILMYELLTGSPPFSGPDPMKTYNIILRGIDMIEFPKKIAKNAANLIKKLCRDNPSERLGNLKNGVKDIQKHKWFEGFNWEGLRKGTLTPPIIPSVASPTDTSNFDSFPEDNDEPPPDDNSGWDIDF

SRC = SRC (Homo sapiens, UniProt P12931); test: Activity against various protein tyrosine kinases: SRC; type: biochemical
TSSK1 = biological target: T3, TSSK1 (Homo sapiens, UniProt Q9BXA7); test: Activity against various protein tyrosine kinases: TSSK1; type: biochemical
T3 sequence (Q9BXA7 1-367): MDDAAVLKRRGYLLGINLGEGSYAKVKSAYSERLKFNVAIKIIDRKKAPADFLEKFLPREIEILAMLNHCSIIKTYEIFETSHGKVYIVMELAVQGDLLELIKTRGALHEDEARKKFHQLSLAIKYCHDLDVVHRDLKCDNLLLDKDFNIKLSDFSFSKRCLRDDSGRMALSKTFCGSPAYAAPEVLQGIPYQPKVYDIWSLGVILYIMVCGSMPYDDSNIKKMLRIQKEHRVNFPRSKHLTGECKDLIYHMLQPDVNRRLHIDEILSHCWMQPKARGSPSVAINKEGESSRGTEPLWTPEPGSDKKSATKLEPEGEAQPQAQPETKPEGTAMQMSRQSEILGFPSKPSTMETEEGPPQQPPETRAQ

TSSK2 = biological target: T4, TSSK2 (Homo sapiens, UniProt Q96PF2); test: Activity against various protein tyrosine kinases: TSSK2; type: biochemical
T4 sequence (Q96PF2 1-358): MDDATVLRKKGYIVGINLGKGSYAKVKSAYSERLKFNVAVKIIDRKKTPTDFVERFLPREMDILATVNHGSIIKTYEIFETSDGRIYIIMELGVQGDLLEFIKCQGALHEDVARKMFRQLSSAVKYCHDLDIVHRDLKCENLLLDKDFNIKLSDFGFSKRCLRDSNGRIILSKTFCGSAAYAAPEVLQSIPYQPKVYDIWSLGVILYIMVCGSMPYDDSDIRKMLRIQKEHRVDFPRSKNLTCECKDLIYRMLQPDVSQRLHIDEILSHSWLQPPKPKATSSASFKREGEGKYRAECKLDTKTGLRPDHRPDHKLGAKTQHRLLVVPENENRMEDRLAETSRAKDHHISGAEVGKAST

ABL = ABL (Homo sapiens, UniProt P00519); test: ABL tyrosine kinase inhibition, off-chip incubation mobility-shift kinase assay (Caliper LABCHIP 3000); conditions: for IC50: ABL, ATP at Km 14 μM, unit inferred; for ABL AVG % Activity at Specific Concentration: average of replicate wells
[1] = at 1.0E−09 (concentration unit not given)
[2] = at 1.0E−10 (concentration unit not given)
[3] = at 1.0E−11 (concentration unit not given)
[4] = at 3.0E−09 (concentration unit not given)
[5] = at 3.0E−10 (concentration unit not given)
[6] = at 3.0E−11 (concentration unit not given)

Sequence of CKIT (P10721 26-976): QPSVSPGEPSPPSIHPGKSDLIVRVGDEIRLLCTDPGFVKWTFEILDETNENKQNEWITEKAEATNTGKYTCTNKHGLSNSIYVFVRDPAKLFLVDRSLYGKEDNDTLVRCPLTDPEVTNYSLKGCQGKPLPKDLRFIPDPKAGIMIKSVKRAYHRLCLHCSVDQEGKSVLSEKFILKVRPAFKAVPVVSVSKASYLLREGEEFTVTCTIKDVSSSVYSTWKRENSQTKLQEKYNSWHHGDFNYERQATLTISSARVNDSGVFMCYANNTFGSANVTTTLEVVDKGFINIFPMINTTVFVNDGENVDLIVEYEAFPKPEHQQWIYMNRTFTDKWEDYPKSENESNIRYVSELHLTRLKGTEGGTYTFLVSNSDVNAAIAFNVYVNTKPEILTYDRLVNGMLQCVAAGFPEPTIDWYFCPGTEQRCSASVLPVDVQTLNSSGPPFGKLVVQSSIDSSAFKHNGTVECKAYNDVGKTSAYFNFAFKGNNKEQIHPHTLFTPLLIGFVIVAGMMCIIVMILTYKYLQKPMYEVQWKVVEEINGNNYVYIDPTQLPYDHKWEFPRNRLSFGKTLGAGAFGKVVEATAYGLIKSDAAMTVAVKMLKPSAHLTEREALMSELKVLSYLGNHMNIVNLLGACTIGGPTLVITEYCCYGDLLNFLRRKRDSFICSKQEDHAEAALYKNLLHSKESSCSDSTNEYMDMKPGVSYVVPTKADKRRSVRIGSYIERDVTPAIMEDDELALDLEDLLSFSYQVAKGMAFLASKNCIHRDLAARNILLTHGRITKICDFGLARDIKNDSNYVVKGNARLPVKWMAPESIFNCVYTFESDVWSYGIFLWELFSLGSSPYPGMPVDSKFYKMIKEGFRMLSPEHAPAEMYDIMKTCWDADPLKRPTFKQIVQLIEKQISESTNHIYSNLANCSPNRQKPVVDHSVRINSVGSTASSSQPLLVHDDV
Sequence of AurB (Q96GD4 whole entry): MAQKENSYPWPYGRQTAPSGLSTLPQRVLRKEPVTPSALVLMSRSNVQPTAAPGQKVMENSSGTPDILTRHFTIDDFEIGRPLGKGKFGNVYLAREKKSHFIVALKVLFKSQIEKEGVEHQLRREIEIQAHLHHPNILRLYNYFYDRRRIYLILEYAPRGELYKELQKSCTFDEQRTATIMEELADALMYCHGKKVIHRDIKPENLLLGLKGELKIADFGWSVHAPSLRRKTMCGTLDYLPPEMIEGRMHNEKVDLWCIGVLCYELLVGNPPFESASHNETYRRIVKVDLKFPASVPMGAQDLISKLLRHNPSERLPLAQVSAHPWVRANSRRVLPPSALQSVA
Sequence of p38-beta2 (Q15759 whole entry): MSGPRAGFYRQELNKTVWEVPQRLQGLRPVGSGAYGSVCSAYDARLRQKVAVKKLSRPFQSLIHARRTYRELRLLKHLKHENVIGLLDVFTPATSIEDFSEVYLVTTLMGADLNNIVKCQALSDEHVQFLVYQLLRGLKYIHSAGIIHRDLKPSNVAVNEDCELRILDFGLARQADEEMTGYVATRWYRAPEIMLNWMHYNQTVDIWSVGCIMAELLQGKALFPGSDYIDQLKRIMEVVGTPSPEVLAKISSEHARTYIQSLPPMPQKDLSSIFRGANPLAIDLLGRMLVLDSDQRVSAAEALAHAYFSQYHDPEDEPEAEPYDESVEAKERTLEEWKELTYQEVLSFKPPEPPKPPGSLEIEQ
Sequence of SRC (P12931 whole entry, species assumed): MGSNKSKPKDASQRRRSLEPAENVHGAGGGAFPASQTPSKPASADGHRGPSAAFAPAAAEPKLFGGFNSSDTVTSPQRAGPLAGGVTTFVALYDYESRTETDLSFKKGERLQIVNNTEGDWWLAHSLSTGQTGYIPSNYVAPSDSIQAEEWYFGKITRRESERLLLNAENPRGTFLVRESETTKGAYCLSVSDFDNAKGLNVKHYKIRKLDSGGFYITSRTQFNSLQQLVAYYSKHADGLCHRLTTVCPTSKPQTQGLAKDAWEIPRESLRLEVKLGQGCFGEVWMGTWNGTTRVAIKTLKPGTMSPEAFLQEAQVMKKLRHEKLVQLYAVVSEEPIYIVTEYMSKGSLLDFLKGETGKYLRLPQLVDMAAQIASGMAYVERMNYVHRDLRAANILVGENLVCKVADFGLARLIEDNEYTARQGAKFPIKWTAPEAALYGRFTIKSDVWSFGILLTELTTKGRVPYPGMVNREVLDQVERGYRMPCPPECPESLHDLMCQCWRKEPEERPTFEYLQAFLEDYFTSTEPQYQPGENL
Sequence of GSK3b (P49841 whole entry, species assumed): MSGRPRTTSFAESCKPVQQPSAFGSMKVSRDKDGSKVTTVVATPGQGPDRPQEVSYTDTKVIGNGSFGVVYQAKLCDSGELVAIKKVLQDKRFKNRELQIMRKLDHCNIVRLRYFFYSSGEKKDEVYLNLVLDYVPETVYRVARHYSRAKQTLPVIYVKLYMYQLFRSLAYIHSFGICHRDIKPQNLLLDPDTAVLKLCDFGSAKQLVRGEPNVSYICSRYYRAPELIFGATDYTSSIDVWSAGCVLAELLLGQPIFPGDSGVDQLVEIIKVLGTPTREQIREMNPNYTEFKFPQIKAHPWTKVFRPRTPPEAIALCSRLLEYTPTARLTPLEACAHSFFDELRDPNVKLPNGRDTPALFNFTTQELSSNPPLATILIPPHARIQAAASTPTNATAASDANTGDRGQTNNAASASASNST
Sequence of ABL (P00519 whole entry): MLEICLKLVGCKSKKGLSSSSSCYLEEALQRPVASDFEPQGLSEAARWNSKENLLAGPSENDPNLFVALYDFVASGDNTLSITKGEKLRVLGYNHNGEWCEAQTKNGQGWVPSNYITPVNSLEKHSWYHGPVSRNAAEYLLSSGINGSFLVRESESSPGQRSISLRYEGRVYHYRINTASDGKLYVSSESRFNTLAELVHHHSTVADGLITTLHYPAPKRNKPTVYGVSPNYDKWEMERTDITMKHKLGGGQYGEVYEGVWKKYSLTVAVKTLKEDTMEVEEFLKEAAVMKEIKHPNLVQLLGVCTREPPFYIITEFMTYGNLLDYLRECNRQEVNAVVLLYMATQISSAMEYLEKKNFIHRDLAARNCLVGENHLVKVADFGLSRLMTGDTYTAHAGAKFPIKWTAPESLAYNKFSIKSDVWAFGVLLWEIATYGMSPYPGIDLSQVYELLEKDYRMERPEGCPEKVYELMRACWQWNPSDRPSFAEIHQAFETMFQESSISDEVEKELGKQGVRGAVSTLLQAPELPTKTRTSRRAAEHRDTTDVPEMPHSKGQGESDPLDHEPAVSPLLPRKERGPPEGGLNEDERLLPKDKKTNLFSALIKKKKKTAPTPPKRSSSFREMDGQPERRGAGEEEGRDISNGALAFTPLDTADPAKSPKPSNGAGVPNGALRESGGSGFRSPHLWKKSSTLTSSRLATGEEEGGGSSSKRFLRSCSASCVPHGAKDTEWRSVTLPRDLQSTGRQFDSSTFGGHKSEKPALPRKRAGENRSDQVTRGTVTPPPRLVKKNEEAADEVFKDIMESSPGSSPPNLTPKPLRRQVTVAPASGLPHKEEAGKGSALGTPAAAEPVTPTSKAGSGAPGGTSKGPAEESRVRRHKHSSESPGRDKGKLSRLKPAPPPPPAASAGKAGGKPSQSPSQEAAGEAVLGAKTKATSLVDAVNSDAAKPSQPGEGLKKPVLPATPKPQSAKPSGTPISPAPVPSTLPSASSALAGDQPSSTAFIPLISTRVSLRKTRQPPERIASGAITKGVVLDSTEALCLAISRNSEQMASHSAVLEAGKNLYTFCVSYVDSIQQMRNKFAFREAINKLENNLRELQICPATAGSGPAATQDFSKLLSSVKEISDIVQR
Sequence of CK1d (P48730 whole entry): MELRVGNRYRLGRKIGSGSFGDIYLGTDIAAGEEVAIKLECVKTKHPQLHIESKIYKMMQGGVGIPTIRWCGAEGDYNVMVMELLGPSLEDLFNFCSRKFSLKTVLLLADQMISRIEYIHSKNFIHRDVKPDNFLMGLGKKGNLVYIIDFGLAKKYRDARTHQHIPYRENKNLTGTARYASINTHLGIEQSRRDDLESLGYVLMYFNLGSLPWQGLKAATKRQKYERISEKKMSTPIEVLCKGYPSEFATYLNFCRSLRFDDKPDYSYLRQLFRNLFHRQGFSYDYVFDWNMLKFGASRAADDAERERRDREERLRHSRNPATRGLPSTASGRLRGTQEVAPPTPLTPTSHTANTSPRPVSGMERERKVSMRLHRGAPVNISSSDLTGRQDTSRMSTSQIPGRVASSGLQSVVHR
Sequence of MSK1 (O75582 whole entry, species assumed): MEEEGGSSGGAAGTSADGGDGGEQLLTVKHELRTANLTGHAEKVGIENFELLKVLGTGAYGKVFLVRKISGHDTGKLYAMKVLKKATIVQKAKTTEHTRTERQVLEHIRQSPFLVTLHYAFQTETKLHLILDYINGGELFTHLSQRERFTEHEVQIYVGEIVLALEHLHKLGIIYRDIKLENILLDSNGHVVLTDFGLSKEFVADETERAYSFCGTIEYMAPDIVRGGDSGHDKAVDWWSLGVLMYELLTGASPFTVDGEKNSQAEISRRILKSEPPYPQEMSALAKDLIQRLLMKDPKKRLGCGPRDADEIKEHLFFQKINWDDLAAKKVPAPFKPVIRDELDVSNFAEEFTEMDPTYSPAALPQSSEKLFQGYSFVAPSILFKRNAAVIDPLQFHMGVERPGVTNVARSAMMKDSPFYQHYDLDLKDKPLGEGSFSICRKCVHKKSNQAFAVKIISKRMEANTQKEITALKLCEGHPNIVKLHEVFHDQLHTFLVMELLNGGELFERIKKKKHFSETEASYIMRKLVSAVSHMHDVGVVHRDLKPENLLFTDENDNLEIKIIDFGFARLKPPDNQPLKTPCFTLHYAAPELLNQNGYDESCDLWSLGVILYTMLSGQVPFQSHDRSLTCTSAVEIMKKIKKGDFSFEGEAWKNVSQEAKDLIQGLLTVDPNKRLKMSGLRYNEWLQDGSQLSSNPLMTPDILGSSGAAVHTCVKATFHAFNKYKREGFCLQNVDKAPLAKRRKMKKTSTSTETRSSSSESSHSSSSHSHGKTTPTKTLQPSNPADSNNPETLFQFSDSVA

SMILES | % Inhibition at 10 nM (AurB) [%] | % Inhibition at 1 μM (AurB) [%] | % Inhibition at 10 nM (AurC) [%] | % Inhibition at 1 μM (AurC) [%] | % Inhibition at 10 nM (CaMKII (beta)) [%] | % Inhibition at 1 μM (CaMKII (beta)) [%] | % Inhibition at 10 nM (CK1d) [%] | % Inhibition at 1 μM (CK1d) [%] | % Inhibition at 10 nM (CKIT) [%] | % Inhibition at 1 μM (CKIT) [%] | % Inhibition at 10 nM (EPHA2) [%] | % Inhibition at 1 μM (EPHA2) [%] | % Inhibition at 10 nM (FYN) [%] | % Inhibition at 1 μM (FYN) [%] | % Inhibition at 10 nM (GSK3b) [%] | % Inhibition at 1 μM (GSK3b) [%] | % Inhibition at 10 nM (LCK) [%] | % Inhibition at 1 μM (LCK) [%] | % Inhibition at 10 nM (MSK1) [%] | % Inhibition at 1 μM (MSK1) [%] | further results
COCCOCCOCCNC(=O)OCCN1CCN(c2cc(Nc3ncc(C(=O)Nc4c(C)cccc4Cl)s3)nc(C)n2)CC1 [mPEG3-NHCOO-Dasatinib] | −1 | 4 | −1 | 0 | 1 | 2 | 1 | 3 | 34 | 100 | 40 | 100 | 98 | 99 | 4 | 1 | 97 | 98 | 2 | 1 | % Inhibition at 10 nM (p38-beta2): 3%; % Inhibition at 1 μM (p38-beta2): 48%; % Inhibition at 10 nM (PKG1-beta): −2%; % Inhibition at 1 μM (PKG1-beta): 0%; % Inhibition at 10 nM (SRC): 99%; % Inhibition at 1 μM (SRC): 99%; % Inhibition at 10 nM (TSSK1): −1%; % Inhibition at 1 μM (TSSK1): 0%; % Inhibition at 10 nM (TSSK2): −1%; % Inhibition at 1 μM (TSSK2): 0%; IC50 (ABL): 0.3 nM; ABL AVG % Activity at Specific Concentration (ABL; [1]): 4%; ABL AVG % Activity at Specific Concentration (ABL; [2]): 81%; ABL AVG % Activity at Specific Concentration (ABL; [3]): 99%; ABL AVG % Activity at Specific Concentration (ABL; [4]): 0%; ABL AVG % Activity at Specific Concentration (ABL; [5]): 47%; ABL AVG % Activity at Specific Concentration (ABL; [6]): 95%
COCCOCCOCCOCCOCCOCCOCCNC(=O)OCCN1CCN(c2cc(Nc3ncc(C(=O)Nc4c(C)cccc4Cl)s3)nc(C)n2)CC1 [mPEG7-NHCOO-Dasatinib] | 0 | 4 | 0 | 2 | 1 | 2 | 0 | 9 | 34 | 100 | 36 | 101 | 98 | 98 | 3 | 2 | 98 | 98 | 3 | 5 | % Inhibition at 10 nM (p38-beta2): 0%; % Inhibition at 1 μM (p38-beta2): 35%; % Inhibition at 10 nM (PKG1-beta): −3%; % Inhibition at 1 μM (PKG1-beta): −3%; % Inhibition at 10 nM (SRC): 98%; % Inhibition at 1 μM (SRC): 98%; % Inhibition at 10 nM (TSSK1): −3%; % Inhibition at 1 μM (TSSK1): −5%; % Inhibition at 10 nM (TSSK2): 3%; % Inhibition at 1 μM (TSSK2): −2%; IC50 (ABL): 0.32 nM; ABL AVG % Activity at Specific Concentration (ABL; [1]): 4%; ABL AVG % Activity at Specific Concentration (ABL; [2]): 80%; ABL AVG % Activity at Specific Concentration (ABL; [3]): 98%; ABL AVG % Activity at Specific Concentration (ABL; [4]): −1%; ABL AVG % Activity at Specific Concentration (ABL; [5]): 48%; ABL AVG % Activity at Specific Concentration (ABL; [6]): 91%
